# Non-standard residues stand in square brackets, D forms with d. Primed or numbered codes have the meaning given here. No end group written: not given here. *: point of attachment. Phe(4-F) = N[C@@H](Cc1ccc(F)cc1)C(=O)O; 2Nal = N[C@@H](Cc1ccc2ccccc2c1)C(=O)O; Arg(Me) = CNC(=N)NCCC[C@H](N)C(=O)O; dNMeY = CN[C@H](Cc1ccc(O)cc1)C(=O)O; Tic = O=C(O)[C@@H]1Cc2ccccc2CN1; 2Thi = N[C@@H](Cc1cccs1)C(=O)O; Cha = N[C@@H](CC1CCCCC1)C(=O)O; pGlu = O=C1CC[C@@H](C(=O)O)N1; Adipoyl′ = not defined here; Orn = NCCC[C@H](N)C(=O)O; Hexanoyl = CCCCCC(=O)*; Propionyl = CCC(=O)*; azaGly = NNC(=O)O; For = O=C*
# Key:
# hOT7T175 [1] = target: T1, hOT7T175 (Homo sapiens, UniProt Q969F8, L364H); format: cell-based; conditions: hOT7T175/CHO, FLIPR, evaluation for 40 seconds after initiation of the reaction
# T1 construct: expressed in transfected cells
# Method: The intracellular Ca ion level-increasing activity was measured using FLIPR as in TEST EXAMPLE 2.
# [2] = Blood testosterone level decreasing effect in mature male rat (0.1 mM peptide solution); format: in vivo
# Method: This peptide solution was filled in 5 ALZET osmotic pumps (Model 2001, 0.2 ml in volume, release rate: 0.001 ml/hr, DURECT Corporation). The ALZET pumps filled with the peptide solution were implanted subcutaneously in 5 CD(SD)IGS male rats of 9 weeks old after birth (Charles River Japan, Inc.) on the back under ether anesthesia by one pump for one animal. For negative control, distilled water (Otsuka Pharmaceutical Co., Ltd.) was filled in 5 ALZET osmotic pumps, which were similarly implanted in 5 male CD(SD)IGS rats (Charles River Japan, Inc.), respectively. These pump-implanted rats were fed for 6 days under normal feeding conditions. After weighing, the animal was decapitated to collect blood. After 0.03 ml/ml blood of aprotinin solution (Trasylol, Bayer) containing 0.1 mg/ml EDTA.2Na was added to blood, the mixture was centrifuged at 1,800 G for 25 minutes to isolate/recover plasma. From the plasma obtained, 0.05 ml was applied to radioimmunoassay (DPC.Total Testosterone Kit, Diagnostic Products Corporation) to measure the plasma testosterone level of each rat. The value below the limit of measurement (0.04 ng/ml of plasma level) in radioimmunoassay was treated as 0. A mean value of the testosterone levels from 5 rats receiving the peptide was calculated and a relative value (percent) of the mean value to a mean value from 5 rats receiving distilled water.
# In a manner similar to TEST EXAMPLE 14, evaluation was made using 0.1 mM peptide solution and a part of the results obtained are shown in TABLE 30.
# [3] = Action of reducing testosterone level in blood in mature male rat (1 mM peptide in 50% DMSO, ALZET osmotic pump); format: in vivo; conditions: 1 mM peptide in 50% DMSO aqueous solution, ALZET osmotic pump s.c., six days
# Method: The peptide was encapsulated in five ALZET osmotic pump (Model 2001, 0.2 ml of volume, releasing rate 0.001 ml/hr, DURECT Corporation). The ALZET pumps encapsulated with the peptide solution were implanted to dorsal subcutaneous of five male CD (SD) IGS rat at nine weeks age (Charles River Japan, Inc.) anesthesized with ether for one pump to one rat. Separately, for negative controls, the ALZET osmotic pumps encapsulated with distilled water were implanted to five male CD (SD) IGS rat (Charles River Japan, Inc.) The rats were bred for six days under the normal conditions. After weighing, blood was collected by decapitation. To 1 ml of blood, 0.03 ml of aprotinin (Trasylol, Byer) solution containing 0.1 g/ml EDTA 2Na was added. The plasma was isolated by centrifugation at 1,800×g for 25 minutes and collected. The thus obtained plasma, 0.05 ml was effected by radioimmunoassay. (DPC Total Testosterone Kit, Diagnostic Products Corporation) to measure testosterone level in blood of each rat. The value beneath measuring limit of radioimmunoassay (0.04 ng/ml as concentration of plasma) was treated as zero. The mean values for testosterone level of five rats, to which the peptide was given, was calculated and the relative value (percentage) for the mean values of testosterone level of five rats, to which distilled watrer was given, was estimated.
# hOT7T175 [4] = target: T2, hOT7T175 (Homo sapiens, UniProt Q969F8); test: Intracellular Ca ion level-increasing activity using FLIPR (180 seconds; specific activity to Metastin (1-54)); format: cell-based; conditions: hOT7T175/CHO, change in intracellular calcium ion level for 180 seconds, Tables 21-23
# T2 construct: expressed in transfected cells
# T2 sequence (Q969F8 whole entry L364H): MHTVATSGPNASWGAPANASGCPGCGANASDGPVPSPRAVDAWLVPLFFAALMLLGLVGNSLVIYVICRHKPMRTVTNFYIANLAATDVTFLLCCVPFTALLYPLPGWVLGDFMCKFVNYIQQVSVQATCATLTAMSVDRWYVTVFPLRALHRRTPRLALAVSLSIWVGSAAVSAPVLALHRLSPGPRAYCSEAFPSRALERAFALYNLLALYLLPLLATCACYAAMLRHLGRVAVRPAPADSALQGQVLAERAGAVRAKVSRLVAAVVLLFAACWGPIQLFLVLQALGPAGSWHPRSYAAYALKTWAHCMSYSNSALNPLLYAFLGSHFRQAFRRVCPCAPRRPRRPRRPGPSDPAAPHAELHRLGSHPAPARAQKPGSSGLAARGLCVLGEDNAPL
# T1 sequence (Q969F8 whole entry L364H): as above
substance,measurement,setting,value
3-(4-Hydroxyphenyl)propionyl-D-Trp-Asn-Thr-Phe-AzaGly-Leu-Arg(Me)-Trp-NH2 [Compound No. 559],Specific Act. (EC50/MS10 EC50),hOT7T175 [1],0.3
same,Teststerone level in Blood,[2],17%
Ac-[dK][dW]NTF[azaGly]L[Arg(Me)]W-NH2 [Compound No. 621],Specific Act. (EC50/MS10 EC50),hOT7T175 [1],1.9
same,Testosterone level in Blood,[3],2%
Ac-[dL][dW]NTF[azaGly]L[Arg(Me)]W-NH2 [Compound No. 617],Specific Act. (EC50/MS10 EC50),hOT7T175 [1],2.4
same,Testosterone level in Blood,[3],2%
Ac-[dNMeY][dW]NTF[azaGly]L[Arg(Me)]W-NH2 [Compound No. 602],Specific Act. (EC50/MS10 EC50),hOT7T175 [1],2.4
same,Testosterone level in Blood,[3],2%
Ac-[dY]WNTF[azaGly]L[Arg(Me)]W-NH2 [Compound No. 623],Specific Act. (EC50/MS10 EC50),hOT7T175 [1],0.6
same,Testosterone level in Blood,[3],2%
Ac-[dY][Tic]NTF[azaGly]L[Arg(Me)]W-NH2 [Compound No. 662],Specific Act. (EC50/MS10 EC50),hOT7T175 [1],0.7
same,Testosterone level in Blood,[3],2%
Ac-[dY][dA]NTF[azaGly]L[Arg(Me)]W-NH2 [Compound No. 625],Specific Act. (EC50/MS10 EC50),hOT7T175 [1],2.8
same,Testosterone level in Blood,[3],2%
Ac-[dY][dE]NTF[azaGly]L[Arg(Me)]W-NH2 [Compound No. 630],Specific Act. (EC50/MS10 EC50),hOT7T175 [1],4.2
same,Testosterone level in Blood,[3],2%
Ac-[dY][dF]NTF[azaGly]L[Arg(Me)]W-NH2 [Compound No. 627],Specific Act. (EC50/MS10 EC50),hOT7T175 [1],1.6
same,Testosterone level in Blood,[3],2%
Ac-[dY][dK]NTF[azaGly]L[Arg(Me)]W-NH2 [Compound No. 629],Specific Act. (EC50/MS10 EC50),hOT7T175 [1],3.4
same,Testosterone level in Blood,[3],2%
Ac-[dY][dL]NTF[azaGly]L[Arg(Me)]W-NH2 [Compound No. 626],Specific Act. (EC50/MS10 EC50),hOT7T175 [1],2.1
same,Testosterone level in Blood,[3],2%
Ac-[dY][dW]NTFGL[Arg(Me)]W-NH2 [Compound No. 598],Specific Act. (EC50/MS10 EC50),hOT7T175 [1],0.3
same,Testosterone level in Blood,[3],2%
Ac-[dY][dW]NTF[azaGly]LRW-NH2 [Compound No. 600],Specific Act. (EC50/MS10 EC50),hOT7T175 [1],0.3
same,Testosterone level in Blood,[3],2%
Ac-[dY][dW]NTF[azaGly]L[Arg(Me)]Y-NH2 [Compound No. 591],Specific Act. (EC50/MS10 EC50),hOT7T175 [1],1.2
same,Testosterone level in Blood,[3],2%
Ac-[dY][dW]NTF[azaGly]L[Arg(Me)][2Nal]-NH2 [Compound No. 589],Specific Act. (EC50/MS10 EC50),hOT7T175 [1],2.3
same,Testosterone level in Blood,[3],2%
Ac-[dY][dW]NTF[azaGly]L[Arg(Me)][2Thi]-NH2 [Compound No. 590],Specific Act. (EC50/MS10 EC50),hOT7T175 [1],1.4
same,Testosterone level in Blood,[3],2%
Ac-[dY][dW]NTF[azaGly]L[Arg(Me)][Cha]-NH2 [Compound No. 595],Specific Act. (EC50/MS10 EC50),hOT7T175 [1],11.4
same,Testosterone level in Blood,[3],3%
Ac-[dY][dW]NTF[azaGly]L[Arg(Me)][Phe(4-F)]-NH2 [Compound No. 592],Specific Act. (EC50/MS10 EC50),hOT7T175 [1],1.1
same,Testosterone level in Blood,[3],2%
Ac-[dY][dW]NTF[azaGly]L[Orn]W-NH2 [Compound No. 599],Specific Act. (EC50/MS10 EC50),hOT7T175 [1],0.5
same,Testosterone level in Blood,[3],2%
Ac-[dY][dW]NTF[azaGly]V[Arg(Me)]W-NH2 [Compound No. 642],Specific Act. (EC50/MS10 EC50),hOT7T175 [1],3.7
same,Testosterone level in Blood,[3],2%
Ac-[dY][dW]NT[Phe(4-F)][azaGly]L[Arg(Me)]W-NH2 [Compound No. 637],Specific Act. (EC50/MS10 EC50),hOT7T175 [1],0.8
same,Testosterone level in Blood,[3],2%
Adipoyl-D-Trp-Asn-Thr-Phe-AzaGly-Leu-Arg(Me)-Trp-NH2 ({Adipoyl′}-[dW]NTF[azaGly]L[Arg(Me)]W-NH2) [Compound No. 671],Specific Act. (EC50/MS10 EC50),hOT7T175 [1],3.6
same,Testosterone level in Blood,[3],2%
D-Tyr-D-Pya(4)-Asn-Ser-Phe-AzaGly-Leu-Arg(Me)-PheΨ(CSNH)NH2 [Compound No. 548],Specific Act. (EC50/MS10 EC50),hOT7T175 [1],1.7
same,Testosterone level in Blood,[3],18%
D-Tyr-D-Pya(4)-Asn-Thr-Phe-AzaGly-Leu-Arg(Me)-Trp-NH2 [Compound No. 501],intracellular Ca ion level-increasing activity [specific activity to Metastin (1-54)],hOT7T175 [4],10
same,Specific Act. (EC50/MS10 EC50),hOT7T175 [1],1.1
same,Testosterone level in Blood,[3],2%
D-Tyr-D-Tyr-D-Trp-Asn-Thr-Phe-AzaGly-Leu-Arg(Me)-Trp-NH2 ([dY][dY][dW]NTF[azaGly]L[Arg(Me)]W-NH2; N-terminus assumed; SMILES CNC(=N)NCCC[C@H](NC(=O)[C@H](CC(C)C)NC(=O)NNC(=O)[C@H](Cc1ccccc1)NC(=O)[C@@H](NC(=O)[C@H](CC(N)=O)NC(=O)[C@@H](Cc1c[nH]c2ccccc12)NC(=O)[C@@H](Cc1ccc(O)cc1)NC(=O)[C@H](N)Cc1ccc(O)cc1)[C@@H](C)O)C(=O)N[C@@H](Cc1c[nH]c2ccccc12)C(N)=O) [Compound No. 650],Specific Act. (EC50/MS10 EC50),hOT7T175 [1],0.6
same,Testosterone level in Blood,[3],2%
For-[dY][dW]NTF[azaGly]L[Arg(Me)]W-NH2 [Compound No. 612],Specific Act. (EC50/MS10 EC50),hOT7T175 [1],0.8
same,Testosterone level in Blood,[3],2%
G[dY][dW]NTF[azaGly]L[Arg(Me)]W-NH2 [Compound No. 648],Specific Act. (EC50/MS10 EC50),hOT7T175 [1],1.6
same,Testosterone level in Blood,[3],2%
Hexanoyl-D-Trp-Asn-Thr-Phe-AzaGly-Leu-Arg(Me)-Trp-NH2 (Hexanoyl-[dW]NTF[azaGly]L[Arg(Me)]W-NH2; SMILES CCCCCC(=O)N[C@H](Cc1c[nH]c2ccccc12)C(=O)N[C@@H](CC(N)=O)C(=O)N[C@H](C(=O)N[C@@H](Cc1ccccc1)C(=O)NNC(=O)N[C@@H](CC(C)C)C(=O)N[C@@H](CCCNC(=N)NC)C(=O)N[C@@H](Cc1c[nH]c2ccccc12)C(N)=O)[C@@H](C)O) [Compound No. 667],Specific Act. (EC50/MS10 EC50),hOT7T175 [1],1.4
same,Testosterone level in Blood,[3],2%
Propionyl-[dY][dW]NTF[azaGly]L[Arg(Me)]W-NH2 [Compound No. 613],Specific Act. (EC50/MS10 EC50),hOT7T175 [1],0.4
same,Testosterone level in Blood,[3],2%
Tyr-D-Tyr-D-Trp-Asn-Thr-Phe-AzaGly-Leu-Arg(Me)-Trp-NH2 (Y[dY][dW]NTF[azaGly]L[Arg(Me)]W-NH2; N-terminus assumed; SMILES CNC(=N)NCCC[C@H](NC(=O)[C@H](CC(C)C)NC(=O)NNC(=O)[C@H](Cc1ccccc1)NC(=O)[C@@H](NC(=O)[C@H](CC(N)=O)NC(=O)[C@@H](Cc1c[nH]c2ccccc12)NC(=O)[C@@H](Cc1ccc(O)cc1)NC(=O)[C@@H](N)Cc1ccc(O)cc1)[C@@H](C)O)C(=O)N[C@@H](Cc1c[nH]c2ccccc12)C(N)=O) [Compound No. 675],Specific Act. (EC50/MS10 EC50),hOT7T175 [1],0.8
same,Testosterone level in Blood,[3],2%
pGlu-D-Tyr-D-Trp-Asn-Thr-Phe-AzaGly-Leu-Arg(Me)-Trp-NH2 ([pGlu][dY][dW]NTF[azaGly]L[Arg(Me)]W-NH2; SMILES CNC(=N)NCCC[C@H](NC(=O)[C@H](CC(C)C)NC(=O)NNC(=O)[C@H](Cc1ccccc1)NC(=O)[C@@H](NC(=O)[C@H](CC(N)=O)NC(=O)[C@@H](Cc1c[nH]c2ccccc12)NC(=O)[C@@H](Cc1ccc(O)cc1)NC(=O)[C@@H]1CCC(=O)N1)[C@@H](C)O)C(=O)N[C@@H](Cc1c[nH]c2ccccc12)C(N)=O) [Compound No. 652],Specific Act. (EC50/MS10 EC50),hOT7T175 [1],0.9
same,Testosterone level in Blood,[3],2%
